Where two headings read alike, the source gives them in different places.
Columns and labels:
[1] = tested on: Capan-1 (K-Ras G12V); assay: CellTiter-Glo cell viability assay, 5-day treatment; type: cell-based; details: Homo sapiens, CAPAN-1, 120 h, 5-day treatment; read-out: Capan-1 Cell Viability assay data (K-Ras G12V, IC50)
Summary of the method: (§1)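 Luminescence read-out after 5 days of compound exposure, with plates first brought to room temperature for roughly 30 minutes. Values are percent of averaged DMSO wells, fitted by four-parameter logistic regression.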

[2] = tested on: NCI-H358 (K-Ras G12C); assay: as above; type: cell-based; details: Homo sapiens, NCI-H358, 120 h, 5-day treatment; read-out: H358 Cell Viability assay data (K-Ras G12C, IC50)
Summary of the method: as §1

[3] = target: KRAS G12C (Homo sapiens, UniProt P01116+P62937, G12C); assay: Disruption of BRAF RBD interaction with Ras (FRET / MOA assay, with Cyclophilin A); type: biochemical
Summary of the method: (§2)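 First, compounds at a ten-point threefold dilution series (highest final concentration 30 μM) were incubated with nucleotide-loaded K-Ras, Cyclophilin A and BRAF RBD for 3 h at 25 °C. Next, detection antibodies were added for 1.5 h. Finally, IC50 was calculated from TR-FRET ratio decreases against DMSO controls.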

[4] = target: KRAS G12D (Homo sapiens, UniProt P01116+P62937, G12D); assay: as above; type: biochemical
Summary of the method: as §2

[5] = target: KRAS G12S (Homo sapiens, UniProt P01116+P62937, G12S); assay: as above; type: biochemical
Summary of the method: as §2

[6] = target: KRAS G12V (Homo sapiens, UniProt P01116+P62937, G12V); assay: as above; type: biochemical
Summary of the method: as §2

[7] = target: KRAS G13C (Homo sapiens, UniProt P01116+P62937, G13C); assay: as above; type: biochemical
Summary of the method: as §2

[8] = target: KRAS G13D (Homo sapiens, UniProt P01116+P62937, G13D); assay: as above; type: biochemical
Summary of the method: as §2

[9] = target: KRAS WT (Homo sapiens, UniProt P01116+P62937); assay: as above; type: biochemical
Summary of the method: as §2

[10] = target: NRAS G12C (Homo sapiens, UniProt P01111+P62937, G12C); assay: as above; type: biochemical
[11] = target: KRAS Q61H (Homo sapiens, UniProt P01116+P62937, Q61H); assay: as above; type: biochemical; details: KRAS Q61H; read-out: KRAS Q61H FRET data IC50
Summary of the method: (§3)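 TR-FRET in 25 mM HEPES pH 7.3, 100 mM NaCl, 5 mM MgCl2, 0.1% BSA: 25 μM Cyclophilin A, 12.5 nM His6-Ras-GMPPNP, 50 nM GST-BRAF RBD with compound (10-point 3-fold series from 30 μM), 3 h at 25° C. Anti-His Eu/anti-GST APC added, 1.5 h more; IC50 from decreased FRET ratio versus DMSO.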

[12] = target: NRAS Q61K (Homo sapiens, UniProt P01111+P62937, Q61K); assay: as above; type: biochemical; details: NRAS Q61K; read-out: NRAS Q61K FRET data IC50
Summary of the method: as §3

[13] = target: NRAS Q61R (Homo sapiens, UniProt P01111+P62937, Q61R); assay: as above; type: biochemical; details: NRAS Q61R; read-out: NRAS Q61R FRET data IC50
Summary of the method: as §3

[14] = target: NRAS WT (Homo sapiens, UniProt P01111+P62937); assay: as above; type: biochemical; details: NRAS WT; read-out: NRAS WT FRET data IC50
Summary of the method: as §3

[15] = read-out: KRAS G12C FRET data, IC50
[16] = read-out: KRAS G12D FRET data, IC50
[17] = read-out: KRAS G12S FRET data, IC50
[18] = KRAS G12V, read-out: KRAS G12V FRET data IC50
[19] = read-out: KRAS G13C FRET data, IC50
[20] = KRAS G13D, read-out: KRAS G13D FRET data IC50
[21] = KRAS WT, read-out: KRAS WT FRET data IC50
[22] = NRAS G12C, read-out: NRAS G12C FRET data IC50

Measured: IC50

Sequence of KRAS Q61H (P01116 1-169 isoform P01116-2 Q61H limits assumed): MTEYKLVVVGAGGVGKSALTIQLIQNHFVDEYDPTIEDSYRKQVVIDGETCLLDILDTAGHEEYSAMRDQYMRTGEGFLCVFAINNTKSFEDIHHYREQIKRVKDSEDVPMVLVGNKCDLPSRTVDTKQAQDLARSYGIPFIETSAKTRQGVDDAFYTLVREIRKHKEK
Sequence of KRAS Q61H (P62937 whole entry): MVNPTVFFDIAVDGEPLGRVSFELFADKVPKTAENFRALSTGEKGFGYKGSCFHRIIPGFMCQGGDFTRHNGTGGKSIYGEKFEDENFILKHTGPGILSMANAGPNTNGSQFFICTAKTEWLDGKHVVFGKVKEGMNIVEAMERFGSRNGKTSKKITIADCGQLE
Sequence of KRAS G13C (P01116 1-169 isoform P01116-2 G13C): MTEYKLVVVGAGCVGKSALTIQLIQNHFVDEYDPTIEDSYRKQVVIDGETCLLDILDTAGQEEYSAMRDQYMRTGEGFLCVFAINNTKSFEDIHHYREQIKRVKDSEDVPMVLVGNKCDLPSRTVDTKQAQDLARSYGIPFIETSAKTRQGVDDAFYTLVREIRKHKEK
Sequence of KRAS G13C (P62937 whole entry): as the sequence (P62937 whole entry) above
Sequence of KRAS G12D (P01116 1-169 isoform P01116-2 G12D limits assumed): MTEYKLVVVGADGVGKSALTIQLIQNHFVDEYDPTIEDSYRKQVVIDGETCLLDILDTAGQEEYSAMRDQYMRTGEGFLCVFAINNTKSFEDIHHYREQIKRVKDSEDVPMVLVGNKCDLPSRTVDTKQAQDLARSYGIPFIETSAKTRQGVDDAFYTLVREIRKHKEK
Sequence of KRAS G12D (P62937 whole entry): as the sequence (P62937 whole entry) above
Sequence of NRAS WT (P01111 whole entry): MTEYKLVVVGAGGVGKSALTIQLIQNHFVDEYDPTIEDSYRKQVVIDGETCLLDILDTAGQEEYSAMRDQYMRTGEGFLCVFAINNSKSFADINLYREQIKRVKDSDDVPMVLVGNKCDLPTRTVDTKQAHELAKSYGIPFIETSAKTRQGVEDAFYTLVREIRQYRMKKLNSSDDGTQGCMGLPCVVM
Sequence of NRAS WT (P62937 whole entry): as the sequence (P62937 whole entry) above
Sequence of NRAS Q61R (P01111 whole entry Q61R): as the sequence (P01111 whole entry) above, with Q61R counted along it
Sequence of NRAS Q61R (P62937 whole entry): as the sequence (P62937 whole entry) above
Sequence of KRAS G12S (P01116 1-169 isoform P01116-2 G12S limits assumed): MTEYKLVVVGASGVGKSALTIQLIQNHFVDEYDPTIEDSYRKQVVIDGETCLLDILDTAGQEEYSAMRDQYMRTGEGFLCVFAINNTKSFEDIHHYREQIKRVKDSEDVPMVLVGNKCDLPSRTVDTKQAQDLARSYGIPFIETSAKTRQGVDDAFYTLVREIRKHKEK
Sequence of KRAS G12S (P62937 whole entry): as the sequence (P62937 whole entry) above
Sequence of NRAS Q61K (P01111 whole entry Q61K): as the sequence (P01111 whole entry) above, with Q61K counted along it
Sequence of NRAS Q61K (P62937 whole entry): as the sequence (P62937 whole entry) above
Sequence of KRAS G12C (P01116 1-169 isoform P01116-2 G12C): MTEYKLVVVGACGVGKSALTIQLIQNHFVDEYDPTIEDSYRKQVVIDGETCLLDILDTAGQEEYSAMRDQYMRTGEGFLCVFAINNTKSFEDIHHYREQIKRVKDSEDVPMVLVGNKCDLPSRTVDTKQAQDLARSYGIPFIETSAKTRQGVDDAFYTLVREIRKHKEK
Sequence of KRAS G12C (P62937 whole entry): as the sequence (P62937 whole entry) above
Sequence of KRAS G12V (P01116 1-169 isoform P01116-2 G12V limits assumed): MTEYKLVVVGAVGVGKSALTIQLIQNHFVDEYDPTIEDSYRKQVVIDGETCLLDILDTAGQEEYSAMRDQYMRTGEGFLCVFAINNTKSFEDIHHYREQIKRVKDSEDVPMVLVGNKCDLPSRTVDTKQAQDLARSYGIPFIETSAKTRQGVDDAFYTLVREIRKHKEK
Sequence of KRAS G12V (P62937 whole entry): as the sequence (P62937 whole entry) above
Sequence of KRAS G13D (P01116 1-169 isoform P01116-2 G13D limits assumed): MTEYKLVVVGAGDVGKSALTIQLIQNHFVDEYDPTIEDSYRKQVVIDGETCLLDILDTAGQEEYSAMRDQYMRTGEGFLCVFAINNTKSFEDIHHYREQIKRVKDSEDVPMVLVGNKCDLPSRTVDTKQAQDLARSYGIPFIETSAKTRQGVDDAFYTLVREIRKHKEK
Sequence of KRAS G13D (P62937 whole entry): as the sequence (P62937 whole entry) above
Sequence of NRAS G12C (P01111 whole entry G12C): as the sequence (P01111 whole entry) above, with G12C counted along it
Sequence of NRAS G12C (P62937 whole entry): as the sequence (P62937 whole entry) above
Sequence of KRAS WT (P01116 1-169 isoform P01116-2 limits assumed): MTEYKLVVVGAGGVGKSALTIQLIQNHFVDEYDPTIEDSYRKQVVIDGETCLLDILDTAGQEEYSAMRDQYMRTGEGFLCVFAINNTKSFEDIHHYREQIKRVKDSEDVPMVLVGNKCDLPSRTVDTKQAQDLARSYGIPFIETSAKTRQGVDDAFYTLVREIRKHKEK
Sequence of KRAS WT (P62937 whole entry): as the sequence (P62937 whole entry) above

CCn1c(-c2cccnc2[C@H](C)OC)c2c3cc(ccc31)-c1csc(n1)C[C@H](NC(=O)N1CCC[C@@H]1COC)C(=O)N1CCC[C@H](N1)C(=O)OCC(C)(C)C2 (atropisomer, axis not shown) [Example A266]
100 to 1000 nM: [1] | [2] | [4]; KRAS G12D FRET data, IC50 | [5]; KRAS G12S FRET data, IC50 | [8]; KRAS G13D FRET data IC50, KRAS G13D | [9]; KRAS WT FRET data IC50, KRAS WT | [13] | [14]
10 to 100 nM: [3]; KRAS G12C FRET data, IC50 | [6]; KRAS G12V FRET data IC50, KRAS G12V | [7]; KRAS G13C FRET data, IC50 | [10]; NRAS G12C FRET data IC50, NRAS G12C | [11] | [12]

CCn1c(-c2cccnc2[C@H](C)OC)c2c3cc(ccc31)-c1csc(n1)C[C@H](NC(=O)[C@H](C(C)C)N(C)C(=O)N1CC3(CN(C)CCO3)C1)C(=O)N1CCC[C@H](N1)C(=O)OCC(C)(C)C2 [Example A499]
100 to 1000 nM: [3]; [15] | [10]; [22] | [11] | [12] | [13]
10 to 100 nM: [1] | [2]
1000 to 10000 nM: [4]; [16] | [5]; [17] | [6]; [18] | [7]; [19] | [8]; [20] | [9]; [21] | [14]

CCn1c(-c2cc(N3CCN(C)CC3)cnc2[C@H](C)OC)c2c3cc(ccc31)-c1csc(n1)C[C@H](NC(=O)[C@H](C(C)C)N(C)C(=O)[C@H]1CCNC1=O)C(=O)N1CCC[C@H](N1)C(=O)OCC(C)(C)C2 (single isomer, unassigned) [Example A449]
1000 to 10000 nM: [4]; [16] | [5]; [17] | [6]; [18] | [8]; [20]
100 to 1000 nM: [1] | [2] | [3]; [15] | [7]; [19] | [9]; [21] | [10]; [22] | [11] | [12] | [13] | [14]

CCn1c(-c2cnccc2COC)c2c3cc(ccc31)-c1cc(O)cc(c1)C[C@H](NC(=O)[C@H](C(C)C)N1COCC1=O)C(=O)N1CCC[C@H](N1)C(=O)OCC(C)(C)C2 [Example A102]
10 to 100 nM: [7]; [19] | [11]
100 to 1000 nM: [1] | [3]; [15] | [4]; [16] | [5]; [17] | [6]; [18] | [8]; [20] | [9]; [21] | [10]; [22] | [12] | [13] | [14]
1000 to 10000 nM: [2]

CCn1c(-c2cccnc2[C@H](C)OC)c2c3cc(ccc31)-c1csc(n1)C[C@H](NC(=O)[C@H](C(C)C)N(C)C(=O)N1CCN(C(=O)C3COC3)CC1)C(=O)N1CCC[C@H](N1)C(=O)OCC(C)(C)C2 (atropisomer, axis not shown) [Example A606]
100 to 1000 nM: [4]; [16] | [6]; [18] | [7]; [19] | [8]; [20]
10 to 100 nM: [1] | [3]; [15] | [5]; [17] | [9]; [21] | [10]; [22] | [11] | [12] | [13] | [14]
< 10 nM: [2]

CCn1c(-c2cc(N3CCN(C)CC3)cnc2[C@H](C)OC)c2c3cc(ccc31)-c1cccc(c1)C[C@H](NC(=O)[C@H](C(C)C)N(C)C(=O)[C@@H]1OCC[C@@H]1c1ccccc1)C(=O)N1CCC[C@H](N1)C(=O)OCC(C)(C)C2 (atropisomer, axis not shown) [Example A562]
10 to 100 nM: [3]; [15] | [6]; [18] | [7]; [19] | [9]; [21] | [10]; [22] | [11] | [13] | [14]
100 to 1000 nM: [4]; [16] | [5]; [17] | [8]; [20] | [12]
< 10 nM: [1] | [2]

CCn1c(-c2cccnc2[C@H](C)OC)c2c3cc(ccc31)-c1csc(n1)C[C@H](NC(=O)[C@H](C(C)C)N(C)C(=O)N1C[C@H](C)N(C)C[C@@H]1C)C(=O)N1CCC[C@H](N1)C(=O)OCC(C)(C)C2 [Example A283]
1000 to 10000 nM: [4]; [16] | [5]; [17] | [6]; [18] | [7]; [19] | [8]; [20]
100 to 1000 nM: [1] | [2] | [3]; [15] | [9]; [21] | [10]; [22] | [11] | [12] | [13] | [14]

CCn1c(-c2cccnc2[C@H](C)OC)c2c3cc(ccc31)-c1csc(n1)C[C@H](NC(=O)[C@H](C(C)C)N(C)C(=O)N1CC[C@@]3(CCN(C)C3=O)C1)C(=O)N1CCC[C@H](N1)C(=O)OCC(C)(C)C2 (single isomer, unassigned) [Example A495]
100 to 1000 nM: [1] | [3]; [15] | [5]; [17] | [6]; [18] | [7]; [19] | [9]; [21] | [10]; [22] | [11] | [12] | [13] | [14]
10 to 100 nM: [2]
1000 to 10000 nM: [4]; [16] | [8]; [20]

CCn1c(-c2cc(N3CCN(C)CC3)cnc2[C@H](C)OC)c2c3cc(ccc31)-c1csc(n1)C[C@H](NC(=O)[C@H](C(C)C)N(C)C(=O)N1CC(N(C)C)C1)C(=O)N1CCC[C@H](N1)C(=O)OCC(C)(C)C2 (atropisomer, axis not shown) [Example A477]
< 10 nM: [1] | [2]
10 to 100 nM: [3]; [15] | [6]; [18] | [10]; [22] | [11] | [12] | [13] | [14]
100 to 1000 nM: [4]; [16] | [5]; [17] | [7]; [19] | [8]; [20] | [9]; [21]

CCn1c(-c2cccnc2[C@H](C)OC)c2c3cc(ccc31)-c1csc(n1)C[C@H](NC(=O)[C@H](C(C)C)N(C)C(=O)N1CCOCC1)C(=O)N1CCC[C@H](N1)C(=O)OCC(C)(C)C2 (atropisomer, axis not shown) [Example A372]
< 10 nM: [2]
10 to 100 nM: [1] | [3]; [15] | [9]; [21] | [10]; [22] | [11] | [12] | [13] | [14]
100 to 1000 nM: [4]; [16] | [5]; [17] | [6]; [18] | [7]; [19] | [8]; [20]

CCn1c(-c2cccnc2[C@H](C)OC)c2c3cc(ccc31)-c1csc(n1)C[C@H](NC(=O)[C@@H](OC(=O)N1CC(OC)C1)C(C)C)C(=O)N1CCC[C@H](N1)C(=O)OCC(C)(C)C2 [Example A354]
1000 to 10000 nM: [4]; [16] | [8]; [20]
100 to 1000 nM: [1] | [2] | [3]; [15] | [5]; [17] | [6]; [18] | [7]; [19] | [9]; [21] | [10]; [22] | [11] | [12] | [13] | [14]
